Measurements as given in US20210395650A1, “COMPOUNDS STABILIZING HYDROLASES IN LIQUIDS” (BASF SE, priority 2018, published 2021).

Biological target: T1, Savinase® 16.0L (Lederbergia lenta, UniProt P29600)
T1 construct: purchased Sigma-Aldrich
T1 sequence (P29600 1-269): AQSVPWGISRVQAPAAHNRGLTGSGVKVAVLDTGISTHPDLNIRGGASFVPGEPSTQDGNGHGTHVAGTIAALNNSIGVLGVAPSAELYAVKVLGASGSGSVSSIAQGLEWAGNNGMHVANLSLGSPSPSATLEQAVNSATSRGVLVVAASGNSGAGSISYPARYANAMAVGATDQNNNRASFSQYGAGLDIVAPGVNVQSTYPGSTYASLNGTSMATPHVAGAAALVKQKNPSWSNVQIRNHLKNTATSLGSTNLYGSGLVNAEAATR
Assay: Protease storage stability in liquid formulations at 37° C. (Suc-AAPF-pNA assay)
Assay type: biochemical
Settings: 0.7 wt% Savinase 16.0 L
Procedure: The storage stability of protease was assessed at 37° C.
Base test formulations were manufactured by making base formulations I to V by mixing the components according to Table 1.
Protease used: Savinase® 16.0L (CAS-No. 9014-01-1, EC-No. 232-752-2) was purchased from Sigma-Aldrich.
The respective component (a) or comparative compound was added, if applicable, to the respective base formulation in amounts as indicated in Table 1.
The amount of protease as provided in Table 1 refers to active protein.
Water was added to accomplish the balance to 100.
Savinase activity at certain points in time as indicated in Table 2 was be determined by employing Succinyl-Ala-Ala-Pro-Phe-p-nitroanilide (Suc-AAPF-pNA, short AAPF) as substrate. pNA is cleaved from the substrate molecule by proteolytic cleavage, resulting in release of yellow color of free pNA which was determined by measuring OD405. Measurements were done at 20° C.
The proteolytic activity values provided in Table 3 were calculated referring to the 100% value determined in the reference formulation at the time 0.
The nomenclature of formulations is as follows: the Roman number before the full stop characterizes the base formulation, the Arabian number the type of compound (A. # compound according to invention (component (a)); (B. #) comparative compound).

[1] = base formulation I, 2.5 wt% compound, 3 d
[2] = base formulation I, 2.5 wt% compound, 7 d
[3] = base formulation I, 2.5 wt% compound, 14 d
[4] = base formulation I, 2.5 wt% compound, 21 d
[5] = base formulation I, 2.5 wt% compound, 28 d
[6] = base formulation I, 2.5 wt% compound, 35 d
[7] = base formulation I, 2.5 wt% compound, T0
[8] = base formulation II, 2.5 wt% compound, 3 d
[9] = base formulation II, 2.5 wt% compound, 7 d
[10] = base formulation II, 2.5 wt% compound, 14 d
[11] = base formulation II, 2.5 wt% compound, 21 d
[12] = base formulation II, 2.5 wt% compound, 28 d
[13] = base formulation II, 2.5 wt% compound, 35 d
[14] = base formulation II, 2.5 wt% compound, T0
[15] = base formulation III, 2.0 wt% compound, 3 d
[16] = base formulation III, 2.0 wt% compound, 7 d
[17] = base formulation III, 2.0 wt% compound, 14 d
[18] = base formulation III, 2.0 wt% compound, 21 d
[19] = base formulation III, 2.0 wt% compound, 28 d
[20] = base formulation III, 2.0 wt% compound, 35 d
[21] = base formulation III, 2.0 wt% compound, T0
[22] = base formulation IV, 2.0 wt% compound, 3 d
[23] = base formulation IV, 2.0 wt% compound, 7 d
[24] = base formulation IV, 2.0 wt% compound, 14 d
[25] = base formulation IV, 2.0 wt% compound, 21 d
[26] = base formulation IV, 2.0 wt% compound, 28 d
[27] = base formulation IV, 2.0 wt% compound, 35 d
[28] = base formulation IV, 2.0 wt% compound, T0
[29] = base formulation V, 2.0 wt% compound, 3 d
[30] = base formulation V, 2.0 wt% compound, 7 d
[31] = base formulation V, 2.0 wt% compound, 14 d
[32] = base formulation V, 2.0 wt% compound, 21 d
[33] = base formulation V, 2.0 wt% compound, 28 d
[34] = base formulation V, 2.0 wt% compound, 35 d
[35] = base formulation V, 2.0 wt% compound, T0

Structure (SMILES)	protease activity in the course of time of storage at 37° C. [1]	protease activity in the course of time of storage at 37° C. [2]	protease activity in the course of time of storage at 37° C. [3]	protease activity in the course of time of storage at 37° C. [4]	protease activity in the course of time of storage at 37° C. [5]	protease activity in the course of time of storage at 37° C. [6]	protease activity in the course of time of storage at 37° C. [8]	protease activity in the course of time of storage at 37° C. [9]	protease activity in the course of time of storage at 37° C. [10]	protease activity in the course of time of storage at 37° C. [11]	protease activity in the course of time of storage at 37° C. [12]	protease activity in the course of time of storage at 37° C. [13]	protease activity in the course of time of storage at 37° C. [14]	protease activity in the course of time of storage at 37° C. [15]	protease activity in the course of time of storage at 37° C. [16]	protease activity in the course of time of storage at 37° C. [17]	protease activity in the course of time of storage at 37° C. [18]	protease activity in the course of time of storage at 37° C. [19]	protease activity in the course of time of storage at 37° C. [20]	protease activity in the course of time of storage at 37° C. [21]	also measured
CCOC(=O)CC(O)(CC(=O)OCC)C(=O)OCC [A.1, Triethylcitrate]	96%	93%	89%	83%	79%	72%	100%	96%	93%	89%	83%	78%	100%	98%	94%	91%	87%	84%	81%	100%	protease activity in the course of time of storage at 37° C. [7]: 100%; protease activity in the course of time of storage at 37° C. [22]: 96%; protease activity in the course of time of storage at 37° C. [23]: 93%; protease activity in the course of time of storage at 37° C. [24]: 88%; protease activity in the course of time of storage at 37° C. [25]: 82%; protease activity in the course of time of storage at 37° C. [26]: 79%; protease activity in the course of time of storage at 37° C. [27]: 74%; protease activity in the course of time of storage at 37° C. [28]: 98%; protease activity in the course of time of storage at 37° C. [29]: 94%; protease activity in the course of time of storage at 37° C. [30]: 90%; protease activity in the course of time of storage at 37° C. [31]: 86%; protease activity in the course of time of storage at 37° C. [32]: 83%; protease activity in the course of time of storage at 37° C. [33]: 79%; protease activity in the course of time of storage at 37° C. [34]: 75%; protease activity in the course of time of storage at 37° C. [35]: 97%
CCCOC(=O)CC(O)(CC(=O)OCCC)C(=O)OCCC [A.2, Tripropylcitrate]	100%	94%	91%	85%	80%	76%	–	–	–	–	–	–	–	100%	100%	96%	91%	88%	84%	102%	protease activity in the course of time of storage at 37° C. [7]: 101%
CCCCOC(=O)CC(O)(CC(=O)OCCCC)C(=O)OCCCC [A.3, Tributylcitrate]	–	–	–	–	–	–	–	–	–	–	–	–	–	–	–	–	–	–	–	–	protease activity in the course of time of storage at 37° C. [22]: 100%; protease activity in the course of time of storage at 37° C. [23]: 96%; protease activity in the course of time of storage at 37° C. [24]: 91%; protease activity in the course of time of storage at 37° C. [25]: 84%; protease activity in the course of time of storage at 37° C. [26]: 81%; protease activity in the course of time of storage at 37° C. [27]: 77%; protease activity in the course of time of storage at 37° C. [28]: 99%; protease activity in the course of time of storage at 37° C. [29]: 98%; protease activity in the course of time of storage at 37° C. [30]: 93%; protease activity in the course of time of storage at 37° C. [31]: 88%; protease activity in the course of time of storage at 37° C. [32]: 85%; protease activity in the course of time of storage at 37° C. [33]: 80%; protease activity in the course of time of storage at 37° C. [34]: 74%; protease activity in the course of time of storage at 37° C. [35]: 101%
CCCCOC(=O)CC(CC(=O)OCCCC)(OC(C)=O)C(=O)OCCCC [A.4, Acetyltributylcitrate]	100%	96%	92%	87%	83%	79%	–	–	–	–	–	–	–	–	–	–	–	–	–	–	–
CCOC(=O)CC(CC(=O)OCC)(OC(C)=O)C(=O)OCC [A.5, Acetyltriethylcitrate]	96%	94%	90%	85%	82%	78%	101%	100%	94%	90%	85%	81%	102%	97%	95%	91%	86%	81%	77%	99%	protease activity in the course of time of storage at 37° C. [7]: 98%
CCOC(=O)CC(O)(CC(=O)O)C(=O)O (stereo not shown) [A.6, Monoethylcitrate]	–	–	–	–	–	–	102%	100%	95%	92%	87%	83%	101%	96%	92%	86%	82%	79%	76%	99%	–
O=C(CC(O)(CC(=O)OCc1ccccc1)C(=O)OCc1ccccc1)OCc1ccccc1 [A.8, Tribenzylcitrate]	–	–	–	–	–	–	94%	91%	88%	85%	83%	77%	100%	–	–	–	–	–	–	–	protease activity in the course of time of storage at 37° C. [29]: 96%; protease activity in the course of time of storage at 37° C. [30]: 92%; protease activity in the course of time of storage at 37° C. [31]: 86%; protease activity in the course of time of storage at 37° C. [32]: 84%; protease activity in the course of time of storage at 37° C. [33]: 80%; protease activity in the course of time of storage at 37° C. [34]: 73%; protease activity in the course of time of storage at 37° C. [35]: 96%
